Values of other authors in publication PMC6709472 (Antimicrobial Agents and Chemotherapy, 2019).

Tests used:
[1] = read-out: 50% effective concentration [EC50]; in vitro activity quoted for VL development
[2] = system: visceral leishmaniasis (VL); conditions: 12.5 mg/kg of body weight orally twice a day; hamster models of VL

In the case of `O=[N+]([O-])c1cn2c(n1)O[C@@H](COc1ccc(-c3ccc(F)cc3)nc1)CC2` [DNDI-0690], the EC50 [1] is listed as 170 nM and the in vivo efficacy [2] is listed as > 99%.
